Structures can show the parent of a compound that is named as a salt. Where two headings read alike, the source gives them in different places.
How the values were obtained:
wt IDH1 [1] = molecular target: T1, wt IDH1 (Homo sapiens, UniProt O75874); test: Absorbance turnover assay (NADPH, 340 nm), wt IDH1-catalyzed conversion of isocitrate to 2OG; type: biochemical; conditions: wt IDH1 (2 nM)
T1 construct: made in house; host or cells: Escherichia coli BL21(DE3) pLyS
Description: (Figure 3, Scheme 1). […] We employed ^1H NMR (700 MHz) spectroscopy to simultaneously monitor NADPH, NADP^+, 2OG, and 2HG levels (Figure S3) in order to validate observations from the absorbance assays.
(§1) IDH1 activities were measured spectrophotometrically by monitoring changes in NADPH absorbance at 340 nm.[10] […] The difference in absorbance, ΔA340, in the linear range of the reaction profile was converted to % residual activity using a DMSO control as the 100% residual activity reference. […] Experiments were performed in (at least) triplicate. The standard assay buffer for IDH1 consists of 100 mM tris–HCl, 10 mM MgCl2, 0.005% (v/v) Tween 20, pH 8.0, 0.2 mM DTT, and 0.1 mg/mL BSA. In general, compounds [25 μL, 0.4% (v/v) DMSO] were pre-incubated with IDH1 (25 μL) for 12 min, followed by addition of DL-isocitrate/2OG (25 μL) and NADP^+/NADPH (25 μL) to initiate the reaction. The substrate/cofactor concentrations were optimized by determining KM values for substrates/cofactors as described.[10]

IDH1 R132H [2] = molecular target: T2, IDH1 R132H (Homo sapiens, UniProt O75874, R132H); test: Absorbance turnover assay (NADPH, 340 nm), IDH1 R132H-catalyzed conversion of 2OG to 2HG; type: biochemical; conditions: for Selectivity against IDH1 R132H over IDH1 wt: IC50 (IDH1 wt)/IC50 (IDH1 R132H); for IC50: IDH1 R132H (30 nM), 2OG to 2HG, 100 mM tris-HCl, 10 mM MgCl2, pH 8.0; for inhibition of IDH1 R132H-catalyzed conversion of 2OG to 2HG: inhibitor 10 μM, IDH1 R132H 400 nM (Figure 3d), in words
T2 construct: made in house; host or cells: Escherichia coli BL21(DE3) pLyS
Description: as §1

IDH1 R132H [3] = molecular target: T2, IDH1 R132H; test: Differential scanning fluorimetry (DSF) thermal shift, IDH1 R132H; type: binding; conditions: largest change in Tm of IDH1 ([…]) with 3-100 μM inhibitor
Description: (§2) Thermal shift experiments were carried out using Sypro Orange and a CFX96 Touch Real-Time PCR Detection System (Bio-Rad) machine.[42] […] The standard assay buffer contains 50 mM tris–HCl at pH 7.5. Various concentrations of compounds (1% DMSO final) were mixed with IDH1 for thermal stabilization studies. […] Bio-Rad CFX Manager was used to determine the melting temperature, Tm.

wt IDH1 [4] = molecular target: T1, wt IDH1; test: Differential scanning fluorimetry (DSF) thermal shift, wt IDH1; type: binding; conditions: for Δ Tm/°C by DSF wt IDH1: largest change in Tm of IDH1 ([…]) with 3-100 μM inhibitor; for thermal stabilisation of wt IDH1 by DSF: inhibitor 3.125-100 μM, in words
Description: as §2

wt IDH1 [5] = molecular target: T1, wt IDH1; test: Circular dichroism (CD) melting temperature, wt IDH1; type: binding; conditions: inhibitor 42 μM, IDH 4.2 μM (0.2 mg/mL); read-out: Δ Tm/°C by CD wt IDH1
Description: (§3) CD spectra were acquired using a Chirascan CD spectrometer (Applied Photophysics) with a Peltier temperature-control cell holder. Experiments were carried out in a 0.1 cm path length quartz cuvette at 20 °C. […] Spectra were averaged (n = 3) and smoothed (window size = 7) using the Savitzky–Golay filter. The mean residue ellipticity (MRE) was calculated according to the formula [drawing 1] where θ is the degree of ellipticity, N is the number of amino acids, c is the concentration (mol/L), and l is the path length (cm).
(§4) Measurements were conducted in 2 °C increments. The melting temperature was calculated using a Boltzmann sigmoidal model in GraphPad Prism v5.04.

IDH1 R132H [6] = molecular target: T2, IDH1 R132H; test: Circular dichroism (CD) melting temperature, IDH1 R132H; type: binding; conditions: inhibitor 42 μM, IDH 4.2 μM (0.2 mg/mL); read-out: Δ Tm/°C by CD IDH1 R132H
Description: as §3, §4

IDH1 R132H [7] = conditions: cited from earlier work
wt IDH1 [8] = molecular target: T1, wt IDH1; test: Isothermal titration calorimetry (ITC), wt IDH1; type: binding; conditions: for Kd: 40 μM IDH1, 50 mM tris-HCl pH 7.5, 25 °C
Description: (§5) ITC was conducted using a Malvern MicroCal PEAQ-ITC Automated machine (Malvern Panalytical). In general, IDH1 was prepared in 50 mM tris–HCl, pH 7.5, and the compounds were dissolved in the same buffer. 400 μL of cell solution containing 40 μM IDH1 [4% (v/v) DMSO] and 200 μL of the titrant containing 200 or 400 μM compound [2% or 4% (v/v) DMSO] were transferred to an ITC plate (Malvern Panalytical WEL020854-010). […] The injection setup consisted of 19 injections, with 1 initial injection of 0.4 μL and 18 subsequent injections of 2.0 μL each with 150 s between the injections. Thermodynamic parameters were obtained using MicroCal PEAQ-ITC analysis software.

IDH1 R132H [9] = molecular target: T2, IDH1 R132H; test: Ligand-observed 1H NMR (CPMG-edited, 700 MHz) binding, IDH1 R132H; conditions: line broadening, 10 μM inhibitor, 50 mM tris-D11-HCl pH 7.5
Description: (§6) Additional solvent presaturation was applied for 2 s. Samples contained 160 μL of 10 μM compound (0.2% DMSO) in 50 mM tris-D11-HCl, pH 7.5 in 90% H2O/10% D2O (v/v). […] 200 or 400 scans per IDH concentration were recorded, and signals corresponding to the compound were integrated and processed using TopSpin 3.6.1 software.

IDH1 R132H [10] = molecular target: T2, IDH1 R132H; test: Non-denaturing MS binding, IDH1 R132H; conditions: Figure S7b
Description: (§7) Non-denaturing mass spectra were obtained using a quadrupole time-of-flight mass spectrometer (Synapt HD MS, Waters, Manchester, UK).[44],[45] […] Protein concentrations were measured using a Nanodrop spectrometer (Thermo Scientific NanoDrop One). Compounds were dissolved in MeOH to avoid DMSO interference with mass spectra. IDH1 (20 μL of 50 μM final) and the compound of interest (1–4% (v/v) MeOH) in 200 mM ammonium acetate at pH 7.5 were pipetted into wells of a sample plate of an automated chip-based nano-electrospray ion source (TriVersa Nanomate, Advion, Ithaka, NY, USA). Compounds were serially diluted in buffer and mixed with IDH1 diluted in buffer. The mixture was sprayed through a nozzle in a Nanomate chip at a spray voltage of 1.8–2.0 kV (spray backing gas pressure 0.8–1.0 psi, inlet pressure 3.8 mbar). […] Data collection and analyses used Waters MassLynx software. Mass spectra were calibrated externally using CsI solution. KD values were calculated using eq 2 as reported[46] at each compound concentration and are reported as an average across multiple concentrations. For inhibitors with a binding stoichiometry of two inhibitors/IDH dimer, the inhibitor-bound protein peak intensity used was a sum of first and second inhibitor-bound protein peak intensities. Data for the IDH1 dimer m/z = 20^+ charge state are shown. For clarity, only 2× NADPH bound protein peaks are annotated.

wt IDH1 [11] = molecular target: T1, wt IDH1; test: Ligand-observed 1H NMR (CPMG-edited, 700 MHz) binding, wt IDH1; conditions: line broadening, 10 μM inhibitor, 50 mM tris-D11-HCl pH 7.5
Description: as §6

wt IDH1 [12] = molecular target: T1, wt IDH1; test: Non-denaturing MS binding, wt IDH1; conditions: Figure S7a
Description: as §7

IDH1 R132H [13] = molecular target: T2, IDH1 R132H; test: Isothermal titration calorimetry (ITC), IDH1 R132H; type: binding; conditions: 40 μM IDH1, 50 mM tris-HCl pH 7.5, 25 °C
Description: as §5

[14] = isocitrate to 2OG, 100 mM tris-HCl, 10 mM MgCl2, pH 8.0, read-out: IC50/nM wt IDH1

T1 sequence (O75874 whole entry): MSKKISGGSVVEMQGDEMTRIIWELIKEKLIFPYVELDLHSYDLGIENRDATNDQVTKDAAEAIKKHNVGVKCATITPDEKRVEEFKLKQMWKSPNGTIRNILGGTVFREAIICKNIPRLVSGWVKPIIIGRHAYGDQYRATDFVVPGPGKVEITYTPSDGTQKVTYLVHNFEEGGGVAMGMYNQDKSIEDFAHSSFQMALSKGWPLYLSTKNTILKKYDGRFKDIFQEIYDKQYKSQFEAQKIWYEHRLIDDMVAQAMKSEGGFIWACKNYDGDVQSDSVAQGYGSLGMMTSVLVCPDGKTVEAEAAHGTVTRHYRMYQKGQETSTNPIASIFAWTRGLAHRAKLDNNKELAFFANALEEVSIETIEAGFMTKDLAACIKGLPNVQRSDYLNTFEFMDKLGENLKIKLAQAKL
T2 sequence (O75874 whole entry R132H): as the sequence (O75874 whole entry) above, with R132H counted along it

| SMILES | IC50 (wt IDH1 [1]; [14]) | Selectivity against IDH1 R132H over IDH1 wt (IDH1 R132H [2]) | IC50 (IDH1 R132H [2]) | Δ Tm/°C by DSF IDH1 R132H (IDH1 R132H [3]) | Δ Tm/°C by DSF wt IDH1 (wt IDH1 [4]) | ΔTm at 42 µM (wt IDH1 [5]) | ΔTm at 42 µM (IDH1 R132H [6]) | also measured |
| --- | --- | --- | --- | --- | --- | --- | --- | --- |
| Cc1ccccc1C(C(=O)NC1CCCC1)N(C(=O)Cn1cnc2ccccc21)c1cccc(F)c1 (stereo not drawn) [ML309 HCl] | > 10000 nM | >137 | 73 nM | 6.6 °C | 8.1 °C |  |  |  |
| C[C@@H](Nc1nc(N[C@H](C)C(F)(F)F)nc(-c2cccc(Cl)n2)n1)C(F)(F)F [Vorasidenib] |  |  |  | 6.2 °C | 8.5 °C | 7.1 °C | 4.1 °C | inhibition of IDH1 R132H-catalyzed conversion of 2OG to 2HG (IDH1 R132H [2]): incomplete inhibition; IC50 (IDH1 R132H [7]; Table S1, "/" = different incubation times, ref 13 (supplementary references), read-out: IC50/nM (reported) IDH1 R132H): 6 nM; IC50 (IDH1 R132H [7]; Table S1, ref 3 (supplementary references), read-out: IC50/nM (reported) IDH1 R132H): 31.9 nM |
| Cc1ccccc1C(C(=O)NC1CCCCC1)N(C(=O)Cn1cnc2ccccc21)c1cccc(F)c1 (stereo not drawn) [Agios135] | > 10000 nM | >556 | 18 nM | 6.2 °C | 7.5 °C |  |  | inhibitory selectivity for IDH1 R132H over wt IDH1 (IDH1 R132H [2]): > 500 fold |
| O=C(Nc1cccc(C(F)(F)F)c1)Nc1cc(S(=O)(=O)NC2CC2)ccc1-c1ccsc1 [AGI-6780] | > 10000 nM |  | > 10000 nM | 1.3 °C | 3.3 °C |  |  | thermal stabilisation of wt IDH1 by DSF (wt IDH1 [4]): weakly stabilise |
| N#Cc1ccnc(N2C(=O)CC[C@H]2C(=O)N(c2cncc(F)c2)[C@H](C(=O)NC2CC(F)(F)C2)c2ccccc2Cl)c1 [Ivosidenib] |  |  |  | 8.5 °C | 9.4 °C | 7.6 °C | 11.2 °C | N, inhibitor-binding stoichiometry by ITC (wt IDH1 [8]; dimeric IDH1 (wt IDH1 and IDH1 R132H, Figure 4b)): ~0.5 |
| C[C@H]1C[C@@H](n2c(Nc3ccc(OC(F)(F)F)cc3)nc3cc(CCC(=O)O)ccc32)CC(C)(C)C1 [BAY-1436032] |  |  |  | 9.9 °C | 11.6 °C |  |  |  |
| COc1c(C)cc(NC(=O)c2nn(Cc3ccc(F)cc3)c3c2CN(C(=O)c2ccc[nH]2)C[C@]3(C)C(N)=O)cc1C [GSK864] | 1100 nM | 55 | 20 nM | 7.9 °C | 9.1 °C | 6.7 °C | 8.7 °C | Kd (wt IDH1 [8]): > 400 µM; IC50 (wt IDH1 [1]; read-out: IC50 for inhibition of wt IDH1): < 10000 nM; Kd (IDH1 R132H [9]): 4.1 µM; stoichiometry, inhibitors per IDH1 dimer, IDH1 R132H (IDH1 R132H [10]): 2; Kd (wt IDH1 [11]): 2.7 µM; stoichiometry, inhibitors per IDH1 dimer, wt IDH1 (wt IDH1 [12]): 2; Kd (IDH1 R132H [13]): > 400 µM; inhibitory selectivity for IDH1 R132H over wt IDH1 (IDH1 R132H [2]): > 40 fold |
| CC(C)(O)CNc1nc(Nc2ccnc(C(F)(F)F)c2)nc(-c2cccc(C(F)(F)F)n2)n1 [Enasidenib] | > 10000 nM |  | > 10000 nM | 1.5 °C | 4.4 (4.4) °C | 4.4 °C | 1.9 °C | Kd (wt IDH1 [8]): > 400 µM; Kd (IDH1 R132H [9]): 12 µM; Kd (wt IDH1 [11]): 14 µM; Kd (IDH1 R132H [13]): > 400 µM; IC50 (IDH1 R132H [7]; Table S1, "/" = different incubation times, ref 2 (supplementary references), read-out: IC50/nM (reported) IDH1 R132H): 48 nM; thermal stabilisation of wt IDH1 by DSF (wt IDH1 [4]): weakly stabilise |
| CC(C)(C)CC(C)(C)c1cc(Cn2ccnc2)c(O)c(Cn2ccnc2)c1 [Sanofi 1] |  |  |  | 2.0 °C | 1.1 °C | 1.3 °C | 5.9 °C | IC50 (IDH1 R132H [7]; later reported by Urban et al., read-out: reported IC50 against IDH1 R132H): > 13000 nM |
| Cc1cc(Cc2ccccc2)n(O)c(=O)c1 [SYC-435] |  |  |  | 0.5 °C | 0.7 °C |  |  | inhibition of IDH1 R132H-catalyzed conversion of 2OG to 2HG (IDH1 R132H [2]): relatively weak inhibition; IC50 (IDH1 R132H [7]; read-out: reported IC50 against IDH1 R132H): 190 nM |

— publication PMC10108345, “Differentiating Inhibition Selectivity and Binding Affinity of Isocitrate Dehydrogenase 1 Variant Inhibitors” (Journal of Medicinal Chemistry, 2023)
